# Source: ChEMBL document CHEMBL5042543, “Bridged Piperidine Analogues of a High Affinity Naphthalene-Based P2Y14R Antagonist” (J Med Chem, 2022)
# Columns and labels:
# [1] = biological target: Sigma intracellular receptor 2 (Homo sapiens, UniProt Q5BJF2); test: Inhibition of sigma 2 receptor (unknown origin) assessed as binding constant
# liver carboxylesterase = biological target: T1, liver carboxylesterase (Sus scrofa, UniProt Q29550); test: Stability of the compound in aqueous medium at pH 7.4 assessed as half life in presence of porcine liver esterase; format: physicochemical; conditions: pig
# T1 sequence (Q29550 whole entry): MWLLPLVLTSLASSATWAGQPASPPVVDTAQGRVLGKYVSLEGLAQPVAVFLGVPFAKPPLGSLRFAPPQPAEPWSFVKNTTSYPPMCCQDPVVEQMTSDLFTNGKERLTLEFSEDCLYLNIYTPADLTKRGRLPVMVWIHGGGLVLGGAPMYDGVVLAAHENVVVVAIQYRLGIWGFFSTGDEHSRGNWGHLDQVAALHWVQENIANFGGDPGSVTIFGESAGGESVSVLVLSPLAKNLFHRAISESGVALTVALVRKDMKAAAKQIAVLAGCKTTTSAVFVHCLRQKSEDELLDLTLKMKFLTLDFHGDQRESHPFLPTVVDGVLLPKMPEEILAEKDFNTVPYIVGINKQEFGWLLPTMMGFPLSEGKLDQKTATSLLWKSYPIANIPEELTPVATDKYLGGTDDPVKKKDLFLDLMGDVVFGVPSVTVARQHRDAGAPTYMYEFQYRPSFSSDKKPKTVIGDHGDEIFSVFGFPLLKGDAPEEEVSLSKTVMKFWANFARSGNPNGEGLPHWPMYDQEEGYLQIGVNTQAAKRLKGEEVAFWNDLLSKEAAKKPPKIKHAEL
# [2] = Distribution coefficient, logD of compound at pH 7.4 by HPLC analysis; format: physicochemical; conditions: octanol/water
# P2Y purinoceptor 14 [3] = biological target: T2, P2Y purinoceptor 14 (Mus musculus, UniProt Q9ESG6); test: Inhibition of fluorescent antagonist binding to mouse P2Y14R expressed in HEK293 cells preincubated for 30 mins followed by addition of 6-amino-9-(2-carboxy-4-((6-(4-(4-(4-(4-(3-carboxy-6-(4-(trifluoromethyl)phenyl)naphthalen-1-yl)phenyl)piperidin-1-yl)butyl)-1H-1,2,3-triazol-1-yl)hexyl)carbamoyl)phenyl)-3-iminio-5-sulfo-3H-xanthene-4-sulfonate incubated for 30 mins by BD FACSCalibur flow …; format: cell-based
# T2 sequence (Q9ESG6 whole entry): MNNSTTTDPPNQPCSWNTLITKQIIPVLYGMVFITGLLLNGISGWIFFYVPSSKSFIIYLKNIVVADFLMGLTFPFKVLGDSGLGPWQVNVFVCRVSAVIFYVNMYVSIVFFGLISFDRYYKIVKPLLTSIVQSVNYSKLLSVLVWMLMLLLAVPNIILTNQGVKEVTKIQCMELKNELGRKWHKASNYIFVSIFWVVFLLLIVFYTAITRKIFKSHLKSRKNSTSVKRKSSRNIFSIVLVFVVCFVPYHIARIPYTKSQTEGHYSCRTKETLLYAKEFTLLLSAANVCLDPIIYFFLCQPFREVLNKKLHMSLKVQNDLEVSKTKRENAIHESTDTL
# [4] = Aqueous solubility of the compound at pH 4
# [5] = biological target: Beta-3 adrenergic receptor (Homo sapiens, UniProt P13945); test: Inhibition of adrenergic beta 3 receptor (unknown origin) assessed as binding constant
# [6] = Aqueous solubility of the compound at pH 7.4
# P2Y purinoceptor 14 [7] = biological target: T3, P2Y purinoceptor 14 (Homo sapiens, UniProt Q15391); test: cell-based
# T3 sequence (Q15391 whole entry): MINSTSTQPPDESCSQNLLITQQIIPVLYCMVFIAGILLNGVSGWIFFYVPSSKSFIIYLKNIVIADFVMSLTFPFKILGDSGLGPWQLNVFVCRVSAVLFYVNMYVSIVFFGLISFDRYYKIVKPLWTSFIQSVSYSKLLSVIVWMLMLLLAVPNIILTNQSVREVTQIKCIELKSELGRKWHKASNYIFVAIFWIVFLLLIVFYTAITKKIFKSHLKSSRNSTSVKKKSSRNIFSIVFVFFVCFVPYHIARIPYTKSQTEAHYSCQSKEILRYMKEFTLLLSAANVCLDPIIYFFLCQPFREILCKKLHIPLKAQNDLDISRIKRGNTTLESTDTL
# Description: Inhibition of fluorescent antagonist binding to human P2Y14R expressed in CHO cells preincubated for 30 mins followed by 6-amino-9-(2-carboxy-4-((6-(4-(4-(4-(4-(3-carboxy 6-(4-(trifluoromethyl)phenyl)naphthalen-1-yl)phenyl)piperidin-1-yl)butyl)-1H-1,2,3-triazol-1-yl)hexyl)carbamoyl)phenyl)-3-iminio-5-sulfo-3H-xanthene-4-sulfonate addition and measured after 30 mins by BD FACSCalibur flow cytometry analysis
# D(1B) dopamine receptor = D(1B) dopamine receptor (Homo sapiens, UniProt P21918); test: Inhibition of dopamine D5 receptor (unknown origin) assessed as binding constant
# [8] = biological target: Sigma non-opioid intracellular receptor 1 (Homo sapiens, UniProt Q99720); test: Inhibition of sigma 1 receptor (unknown origin) assessed as binding constant
# Chain of Sigma non-opioid intracellular receptor 1 (Q99720 whole entry): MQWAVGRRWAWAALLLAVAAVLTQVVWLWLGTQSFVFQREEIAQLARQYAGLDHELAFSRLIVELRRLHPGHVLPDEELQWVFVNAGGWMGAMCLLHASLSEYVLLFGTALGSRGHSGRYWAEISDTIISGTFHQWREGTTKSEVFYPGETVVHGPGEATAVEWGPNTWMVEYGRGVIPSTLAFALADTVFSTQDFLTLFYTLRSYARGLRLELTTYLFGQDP
# Chain of Sigma intracellular receptor 2 (Q5BJF2 whole entry): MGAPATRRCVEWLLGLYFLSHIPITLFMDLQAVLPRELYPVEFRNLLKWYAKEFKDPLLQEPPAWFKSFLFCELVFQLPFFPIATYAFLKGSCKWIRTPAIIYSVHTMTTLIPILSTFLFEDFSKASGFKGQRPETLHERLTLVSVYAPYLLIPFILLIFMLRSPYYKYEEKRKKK
# Chain of Beta-3 adrenergic receptor (P13945 whole entry): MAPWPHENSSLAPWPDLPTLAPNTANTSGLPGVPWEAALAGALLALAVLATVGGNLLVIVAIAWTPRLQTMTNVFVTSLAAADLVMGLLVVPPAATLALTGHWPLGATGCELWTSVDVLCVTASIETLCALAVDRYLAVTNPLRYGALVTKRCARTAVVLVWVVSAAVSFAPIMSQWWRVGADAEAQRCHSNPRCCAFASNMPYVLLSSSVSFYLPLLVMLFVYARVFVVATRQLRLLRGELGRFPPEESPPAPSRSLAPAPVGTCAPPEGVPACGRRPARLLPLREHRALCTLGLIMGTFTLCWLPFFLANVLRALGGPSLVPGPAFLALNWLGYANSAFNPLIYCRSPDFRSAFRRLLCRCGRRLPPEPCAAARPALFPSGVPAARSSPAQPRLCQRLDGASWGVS
# Chain of D(1B) dopamine receptor (P21918 whole entry): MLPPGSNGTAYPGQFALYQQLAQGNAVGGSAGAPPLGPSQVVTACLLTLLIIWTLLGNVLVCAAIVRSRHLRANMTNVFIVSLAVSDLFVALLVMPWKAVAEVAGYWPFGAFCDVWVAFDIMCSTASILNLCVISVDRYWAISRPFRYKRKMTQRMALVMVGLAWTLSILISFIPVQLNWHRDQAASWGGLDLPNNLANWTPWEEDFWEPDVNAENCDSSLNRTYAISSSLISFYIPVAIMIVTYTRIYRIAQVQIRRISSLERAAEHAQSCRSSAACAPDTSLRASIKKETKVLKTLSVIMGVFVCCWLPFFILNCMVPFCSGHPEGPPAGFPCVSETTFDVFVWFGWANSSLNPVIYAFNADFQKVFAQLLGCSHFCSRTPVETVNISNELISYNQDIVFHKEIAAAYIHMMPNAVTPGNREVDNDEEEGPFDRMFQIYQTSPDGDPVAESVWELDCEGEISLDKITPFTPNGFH
SMILES,logD ([2]; read-out: logD),solubility ([6]; buffer) [µg/mL],IC50 (P2Y purinoceptor 14 [7]) [nM],further results
N[C@@H]1C[C@H](C(=O)O)[C@@H](c2ccc(-c3cc(C(=O)O)cc4cc(-c5ccc(C(F)(F)F)cc5)ccc34)cc2)C1,–,–,–,Ki [1]: 2000 nM
CN(C)C(=O)COC(=O)c1cc(-c2ccc([C@@H]3C[C@@H]4C[C@H]3C(=O)N4)cc2)c2ccc(-c3ccc(C(F)(F)F)cc3)cc2c1,–,–,–,half-life (liver carboxylesterase): > 72 h
O=C(O)c1cc(-c2ccc([C@@H]3C[C@H]4CN[C@@H]3C4)cc2)c2ccc(-c3ccc(C(F)(F)F)cc3)cc2c1,2.1,–,–,IC50 (P2Y purinoceptor 14 [3]): 90.9 nM; Ki [1]: 1000 nM
O=C(O)c1cc(-c2ccc([C@H]3C[C@H]4C[C@@H]3CN4)cc2)c2ccc(-c3ccc(C(F)(F)F)cc3)cc2c1 (racemic),2,0.47,–,solubility ([4]; buffer): 2.73 µg/mL; Ki [5]: > 1000 nM; Ki [1]: 650 nM
O=C(O)c1cc(-c2ccc(C3[C@H]4CC[C@H]3CNC4)cc2)c2ccc(-c3ccc(C(F)(F)F)cc3)cc2c1 (some centres not stated),3,0.16,696,solubility ([4]; buffer): 0.32 µg/mL
COC1(c2ccc(-c3cc(C(=O)O)cc4cc(-c5ccc(C(F)(F)F)cc5)ccc34)cc2)[C@H]2CC[C@H]1CNC2 (some centres not stated),1.4,–,44.6,solubility ([4]; buffer): 1.81 µg/mL; solubility ([6]; aqueous medium): 0.88 µg/mL
O=C(O)c1cc(-c2ccc([C@@]3(O)C[C@H]4CC[C@@H](C3)N4)cc2)c2ccc(-c3ccc(C(F)(F)F)cc3)cc2c1,1.2,–,–,–
CC(=O)N1C[C@H]2C[C@@H]1C[C@@H]2c1ccc(-c2cc(C(=O)O)cc3cc(-c4ccc(C(F)(F)F)cc4)ccc23)cc1,0.92,–,99.3,–
O=C(O)c1cc(-c2ccc([C@H]3CCN[C@@H]4C[C@H]34)cc2)c2ccc(-c3ccc(C(F)(F)F)cc3)cc2c1 (relative stereo),2.6,0.51,–,solubility ([4]; aqueous medium): 0.1 µg/mL
O=C(O)c1cc(-c2ccc(C3=CC4CCC(C3)N4)cc2)c2ccc(-c3ccc(C(F)(F)F)cc3)cc2c1 (racemic),2.3,–,–,–
CC1CC(c2ccc(-c3cc(C(=O)O)cc4cc(-c5ccc(C(F)(F)F)cc5)ccc34)cc2)CCN1 (configuration not stated),2.1,–,–,–
CC(=O)N1C[C@@H]2C[C@H]1C[C@H]2c1ccc(-c2cc(C(=O)O)cc3cc(-c4ccc(C(F)(F)F)cc4)ccc23)cc1 (racemic),0.92,2.53,–,solubility ([4]; buffer): 0.13 µg/mL
N[C@H]1C[C@@H](C(=O)O)C[C@@H]1c1ccc(-c2cc(C(=O)O)cc3cc(-c4ccc(C(F)(F)F)cc4)ccc23)cc1,–,–,269,–
N[C@@H]1C[C@H](CO)[C@@H](c2ccc(-c3cc(C(=O)O)cc4cc(-c5ccc(C(F)(F)F)cc5)ccc34)cc2)C1,–,–,–,Ki [1]: 1000 nM
CCOC(=O)N1C[C@H]2C[C@@H]1C[C@@H]2c1ccc(-c2cc(C(=O)O)cc3cc(-c4ccc(C(F)(F)F)cc4)ccc23)cc1,–,–,442,–
CC(=O)N1C[C@@H]2C[C@H]1C[C@H]2c1ccc(-c2cc(C(=O)O)cc3cc(-c4ccc(C(F)(F)F)cc4)ccc23)cc1,–,–,64.1,logD [2]: 0.55; Ki (D(1B) dopamine receptor): > 1000 nM; Ki [8]: 4200 nM; Ki [1]: 1700 nM

SMILES,logD ([2]; read-out: logD),solubility ([6]; buffer) [µg/mL],IC50 (P2Y purinoceptor 14 [7]) [nM],further results
O=C(O)c1cc(-c2ccc(C3CC4CCC3CN4)cc2)c2ccc(-c3ccc(C(F)(F)F)cc3)cc2c1 (configuration not stated),1.7,–,25.1,–
O=C(O)c1cc(-c2ccc([C@]3(O)C[C@H]4CC[C@@H]3CN4)cc2)c2ccc(-c3ccc(C(F)(F)F)cc3)cc2c1 (racemic),0.74,–,114,–
O=C(O)c1cc(-c2ccc(C34CCNCC3C4(F)F)cc2)c2ccc(-c3ccc(C(F)(F)F)cc3)cc2c1 (racemic),2.7,–,–,–
N[C@@H]1C[C@H](C(=O)O)C[C@H]1c1ccc(-c2cc(C(=O)O)cc3cc(-c4ccc(C(F)(F)F)cc4)ccc23)cc1,-0.48,–,–,–
O=C(O)c1cc(-c2ccc([C@@H]3C[C@@H]4C[C@H]3C(=O)N4)cc2)c2ccc(-c3ccc(C(F)(F)F)cc3)cc2c1,0.49,–,–,Ki [8]: 3200 nM; Ki [5]: > 1000 nM; Ki [1]: 1900 nM
O=C(O)c1cc(-c2ccc(C3(O)[C@H]4CC[C@H]3CN(Cc3ccccc3)C4)cc2)c2ccc(-c3ccc(C(F)(F)F)cc3)cc2c1 (some centres not stated),3.3,0.14,–,solubility ([4]; buffer): 0.48 µg/mL
O=C(O)c1cc(-c2ccc(C3CC4CCC(C3)N4)cc2)c2ccc(-c3ccc(C(F)(F)F)cc3)cc2c1 (configuration not stated),2.3,0.13,38.3,solubility ([4]; buffer): 0.38 µg/mL
O=C(O)c1cc(-c2ccc(C34CCNCC3C4)cc2)c2ccc(-c3ccc(C(F)(F)F)cc3)cc2c1 (racemic),2.4,0.17,45.5,solubility ([4]; aqueous medium): 1.32 µg/mL
N[C@H]1C[C@@H](C(=O)O)[C@H](c2ccc(-c3cc(C(=O)O)cc4cc(-c5ccc(C(F)(F)F)cc5)ccc34)cc2)C1,-0.57,–,–,–
O=C(O)c1cc(-c2ccc(C3(O)[C@H]4CC[C@H]3CNC4)cc2)c2ccc(-c3ccc(C(F)(F)F)cc3)cc2c1 (some centres not stated),1.2,0.54,21.3,IC50 (P2Y purinoceptor 14 [3]): 15.5 nM; solubility ([4]; buffer): 2.32 µg/mL; Ki [8]: 1700 nM; Ki [1]: 1700 nM
CC(=O)N1C[C@@H]2C[C@H]1C[C@H]2c1ccc(-c2cc(C(=O)OCC(=O)N(C)C)cc3cc(-c4ccc(C(F)(F)F)cc4)ccc23)cc1,–,–,–,half-life (liver carboxylesterase): > 72 h
N[C@@H]1C[C@H](CO)C[C@H]1c1ccc(-c2cc(C(=O)O)cc3cc(-c4ccc(C(F)(F)F)cc4)ccc23)cc1,1.1,–,–,–
CC1CNCCC1c1ccc(-c2cc(C(=O)O)cc3cc(-c4ccc(C(F)(F)F)cc4)ccc23)cc1 (configuration not stated),2.8,–,–,–
O=C(O)c1cc(-c2ccc([C@@]3(O)C[C@H]4CC[C@@H]3CN4)cc2)c2ccc(-c3ccc(C(F)(F)F)cc3)cc2c1 (racemic),0.96,–,15.6,–
O=C(O)c1cc(-c2ccc([C@@H]3CCN[C@@H]4C[C@@H]43)cc2)c2ccc(-c3ccc(C(F)(F)F)cc3)cc2c1 (racemic),1.8,0.05,–,solubility ([4]; buffer): 0.24 µg/mL
O=C(O)c1cc(-c2ccc(C34CCN(CC3)CC4)cc2)c2ccc(-c3ccc(C(F)(F)F)cc3)cc2c1,4.2,0.55,–,solubility ([4]; buffer): 1.5 µg/mL
